Experimental data published in paper PMC7466059, “Synthesis and Ex Vivo Trans-Corneal Permeation of Penetratin Analogues as Ophthalmic Carriers: Preliminary Results” (Pharmaceutics, 2020).

Experiments:
[1] = Ex vivo trans-corneal permeation, Franz-type diffusion cells; format: in vitro ADME, pig; conditions: ex vivo porcine cornea, epithelial side to donor, area 0.2 cm^2; donor 100 µM, 200 µL; donor and receiving solutions PBS pH 7.4; 37 °C, 6 h, hourly sampling; fluorescence 485/535 nm; mean ± sd, n = 3-4
Protocol: Permeation experiments across freshly porcine cornea were performed following a method previously reported. In detail, transparent porcine corneas were isolated from fresh pig eyes (breed: Large White and Landrace; weight: 145–190 kg; age: 10–11 months; sex: female and male; Macello Annoni SpA, Busseto, Italy) and supported by glass Franz-type diffusion cells, having a permeation area of 0.2 cm^2. The epithelial side was in contact with the donor, i.e., 200 µL of aqueous solution containing a peptide: each concentration and solvent are indicated in Table 2. Donor concentrations were selected based on different solubility and analytical sensitivity (see paragraph 2.4 and Table S2). For some peptides, the solubilization was improved by dissolving the raw material using small amount of DMSO (final concentration less than 5% v/v), and then PBS or PBS+0.1% BSA were alternately added.
To fill the receptor compartment, around 4 mL of degassed PBS or PBS+0.1% BSA was used (see Table 2), being kept at 37 °C and maintained under magnetic stirring to avoid any boundary layer effect. The presence of 0.1% BSA aids in preventing peptides aggregation. Permeation experiments lasted 6 h, and for quantification purposes, 200 µL of the receiving solution were collected every hour and reintegrated with fresh medium. Each condition was replicated between 3 and 4 times, using cornea isolated from different animals.
Permeation samples were analysed without preliminary separation by fluorescence, using a Spark 10M microplate reader (Tecan Trading AG, Switzerland); excitation and emission wavelengths were 485 nm and 535 nm, respectively. Standard solutions were prepared in PBS pH 7.4 or in PBS containing BSA 0.1%. RSD% (relative standard deviation %) was lower than 10%, while ER% (relative error %) resulted lower than 15%.
The amount of CPP permeated across the cornea (nmol/cm^2) is plotted against time (hour): the slope of the regression line at steady state represents the trans-corneal flux J (nmol/cm^2 h). The apparent permeability coefficient Papp (cm/s) is then calculated as Equation (1): Papp = J/c(1) being c (µM) the concentration of the donor solution. Papp allows for a direct comparison among permeants studied using different donor concentrations.

[2] = set-up: method as in PMID 24521351, PMID 28927928; conditions: literature report; cited from earlier work

Structure (SMILES): CC[C@H](C)[C@H](NC(=O)[C@H](CCCCN)NC(=O)[C@@H](NC(=O)[C@H](CCC(N)=O)NC(=O)[C@H](CCCNC(=N)N)NC(=O)c1ccc2c(c1)C(=O)OC21c2ccc(O)cc2Oc2cc(O)ccc21)[C@@H](C)CC)C(=O)N[C@@H](Cc1c[nH]c2ccccc12)C(=O)N[C@@H](Cc1ccccc1)C(=O)N[C@@H](CCC(N)=O)C(=O)N[C@@H](CC(N)=O)C(=O)N[C@@H](CCCNC(=N)N)C(=O)N[C@@H](CCCNC(=N)N)C(=O)N[C@@H](CCSC)C(=O)N[C@@H](CCCCN)C(=O)N[C@@H](Cc1c[nH]c2ccccc12)C(=O)N[C@@H](CCCCN)C(=O)N[C@@H](CCCCN)C(N)=O [reference compound]
- Papp (apparent permeability coefficient) [1]: 4.54 ± 2.01 10^−6 cm/s
- ocular toxicity [2]: lacking in ocular toxicity
